Patent publication US20250042847A1, “SUBSTITUTED PHENYLPROPIONIC ACID DERIVATIVE AND USE THEREOF” (TUOJIE BIOTECH (SHANGHAI) CO., LTD., priority 2021, published 2025)
pIC50: −log10 of the molar value. Counter-ions that a name gives are not always drawn. Values belong to the compound of their own block, whether it stands above or below them.

Tests used:
[1] = molecular target: Apo(a) and ApoB protein assembly (Homo sapiens (Human), UniProt P08519); assay: Test for activity of compounds in inhibiting Lp(a) assembly (double antibody ELISA); type: biochemical; details: plasma from human transgenic hApo(a) and hApoB mice; 37° C., 2 h; ELISA absorbance at 450 nm
Protocol: The disclosure used a double antibody ELISA method to measure the efficiency of Apo(a) and ApoB protein assembly. The antibodies were ApoB-Capture antibody (Mabtech) and Apo(a)-Detector antibody (Abcam); the test samples were plasma from human transgenic hApo(a) and hApoB mice and were diluted 500-fold before use.
Experimental steps: Equal amounts of Apo(a) and ApoB serum were mixed with a serially diluted test compound (highest concentration at 100 nM, serially diluted 3-fold). The mixture was incubated in a 37° C. incubator for 2 h. The reaction was then terminated by adding 6-aminocaproic acid (EACA, purchased from Sigma) to a final concentration of 150 mM. The post-reaction solution was then added to an ELISA plate pre-coated with ApoB-Capture antibody, and the plate was incubated at room temperature for 2 h. Then the plate was washed 4 times with wash buffer; biotinylated Apo(a)-Detector antibody was added, and the plate was incubated at room temperature for 1 h. The plate was washed, and the chromogenic substrate 3,3′,5,5′-tetramethylbenzidine (TMB, purchased from Abcam) solution was added. After the plate was incubated at room temperature for 15 min, a reaction stop solution was added. Immediately after the solution was mixed well, the absorbance at 450 nm was measured using a microplate reader. Finally, data analysis and IC50 calculation were performed using GraphPad Prism 9 software.
The 0% inhibition rate for Apo(a) and ApoB protein assembly corresponds to the OD value where the compound concentration was 0 (1% DMSO); the 100% inhibition rate for Apo(a) and ApoB protein assembly corresponds to the OD value where only ApoB protein solution (a dilution of plasma from hApoB mice) was added.

[2] = High-dose single-dose tolerance experiment on mice; type: in vivo, C57/6J mice; details: for body weight trend of the mice: 7 d after high-dose (1000 mg/kg) administration, conclusion in words; for Mouse body weight, Day 0 / Mouse body weight, Day 3 / Mouse body weight, Day 5 / Mouse body weight, Day 7: male C57/6J mice, single oral gavage 1000 mg/kg, mean
Protocol: C57/6J mice were used as test animals and administered a high dose of the compound of the disclosure by oral gavage. Clinical observations were carried out on the mice, and the safety of the compound of the disclosure was evaluated.
Experimental method: 8 male C57/6J mice were numbered 1-8 and weighed. The mice were fasted for 4 h before the experiment and weighed after the fast (0 h). Six mice with body weights closer to the average were selected and divided into 2 groups of 3.
The first group (G1) was administered reference 1, and the second group (G2) was administered the compound of the disclosure, Example 6. In both groups G1 and G2, the compounds were administrated by oral gavage at a dose of 1000 mg/kg, with normal saline as a vehicle. Clinical observations were carried out on the mice in the experimental group at 15 min, 30 min, 1 h, 2 h, 4 h, 6 h, and 24 h post-dose, and both groups were given food at 2 h post-dose.

[3] = In vivo pharmacokinetic experiment on beagles; details: intragastric, 10 mg/kg
Protocol: (§1) Beagles were used as test animals. After intragastric administration of the compound of the disclosure to beagles, plasma concentrations at different time points were determined by LC/MS/MS. The pharmacokinetic behavior of the compound of the disclosure in beagles was studied and its pharmacokinetic profile was evaluated.
Test Animals: 2 Healthy Male Beagles Aged 8-36 Months Per Group
Compound solution preparation: A certain amount of compound was weighed out and normal saline was added to form a 2 mg/mL colorless clear solution.
Administration: Beagles were fasted overnight and then intragastrically dosed. Reference 1 and compound 6 were both administered at a dose of 10 mg/kg.
(§2) Procedure: Beagles were intragastrically administered the compound of the disclosure. Blood samples of about 0.6 mL were collected from the peripheral vein at 0.25, 0.5, 1, 2, 4, 6, 8, and 24 h post-dose and placed into test tubes containing EDTA-K2. The blood samples were centrifuged at about 4° C. at 2000 rpm for 10 min to separate plasma, and the plasma was stored at −75° C.
(§3) Determination of the content of the test compound in beagle plasma at these different blood collection time points: Samples of 33 μL (30 μL of plasma and 3 μL of blank) of the beagle plasma collected at these time points post-dose were taken and added to 18 μL of a 6% perchloric acid solution. After 30 s of vortexing, the mixture was centrifuged at a temperature of 4° C. at 3900 rpm for 15 min, and 200 μL of alkalinized (the pH was adjusted to 10-11 with ammonia water) acetonitrile solution containing dexamethasone as an internal standard was then added to precipitate protein. After 30 s of vortexing, the mixture was centrifuged at 4° C. at 3900 rpm for 15 min. The supernatants of the plasma samples were taken and 3-fold diluted with water, and 8 μL of dilution was taken for LC/MS/MS analysis.
(§4) After plasma concentrations were determined by LC/MS/MS analysis, pharmacokinetic parameters were calculated using WinNonlin 6.1 software and a non-compartmental model method.

[4] = In vivo pharmacokinetic experiment on cynomolgus monkeys; details: intragastric; for AUC / half-life / Cmax: both sexes, cynomolgus monkey, plasma, po; for AUC: read-out: Area under curve AUC; for half-life: read-out: Half-life T1/2 (converted); for Cmax: read-out: Maximum plasma concentration Cmax
Protocol: as §1, with “Cynomolgus monkeys” for “Beagles”, “cynomolgus monkeys,” for “beagles,”, “cynomolgus monkeys” for “beagles”
Test Animals: 2 Healthy Cynomolgus Monkeys Aged 24-36 Months Per Group (One Male and One Female)
Compound solution preparation: Certain amounts of compound were weighed out and normal saline was added to form 10 mg/mL (reference 1) and 3 mg/mL (compound 6) colorless clear solutions.
Administration: Cynomolgus monkeys were fasted overnight and then intragastrically dosed. Reference 1 was administered at a dose of 50 mg/kg, and compound 6 was administered at a dose of 15 mg/kg.
as §2, with “Cynomolgus monkeys” for “Beagles”, “0.5” for “0.6”
as §3, with “cynomolgus monkey” for “beagle”
as §4

Chain of Apo(a) and ApoB protein assembly (P08519 20-2040): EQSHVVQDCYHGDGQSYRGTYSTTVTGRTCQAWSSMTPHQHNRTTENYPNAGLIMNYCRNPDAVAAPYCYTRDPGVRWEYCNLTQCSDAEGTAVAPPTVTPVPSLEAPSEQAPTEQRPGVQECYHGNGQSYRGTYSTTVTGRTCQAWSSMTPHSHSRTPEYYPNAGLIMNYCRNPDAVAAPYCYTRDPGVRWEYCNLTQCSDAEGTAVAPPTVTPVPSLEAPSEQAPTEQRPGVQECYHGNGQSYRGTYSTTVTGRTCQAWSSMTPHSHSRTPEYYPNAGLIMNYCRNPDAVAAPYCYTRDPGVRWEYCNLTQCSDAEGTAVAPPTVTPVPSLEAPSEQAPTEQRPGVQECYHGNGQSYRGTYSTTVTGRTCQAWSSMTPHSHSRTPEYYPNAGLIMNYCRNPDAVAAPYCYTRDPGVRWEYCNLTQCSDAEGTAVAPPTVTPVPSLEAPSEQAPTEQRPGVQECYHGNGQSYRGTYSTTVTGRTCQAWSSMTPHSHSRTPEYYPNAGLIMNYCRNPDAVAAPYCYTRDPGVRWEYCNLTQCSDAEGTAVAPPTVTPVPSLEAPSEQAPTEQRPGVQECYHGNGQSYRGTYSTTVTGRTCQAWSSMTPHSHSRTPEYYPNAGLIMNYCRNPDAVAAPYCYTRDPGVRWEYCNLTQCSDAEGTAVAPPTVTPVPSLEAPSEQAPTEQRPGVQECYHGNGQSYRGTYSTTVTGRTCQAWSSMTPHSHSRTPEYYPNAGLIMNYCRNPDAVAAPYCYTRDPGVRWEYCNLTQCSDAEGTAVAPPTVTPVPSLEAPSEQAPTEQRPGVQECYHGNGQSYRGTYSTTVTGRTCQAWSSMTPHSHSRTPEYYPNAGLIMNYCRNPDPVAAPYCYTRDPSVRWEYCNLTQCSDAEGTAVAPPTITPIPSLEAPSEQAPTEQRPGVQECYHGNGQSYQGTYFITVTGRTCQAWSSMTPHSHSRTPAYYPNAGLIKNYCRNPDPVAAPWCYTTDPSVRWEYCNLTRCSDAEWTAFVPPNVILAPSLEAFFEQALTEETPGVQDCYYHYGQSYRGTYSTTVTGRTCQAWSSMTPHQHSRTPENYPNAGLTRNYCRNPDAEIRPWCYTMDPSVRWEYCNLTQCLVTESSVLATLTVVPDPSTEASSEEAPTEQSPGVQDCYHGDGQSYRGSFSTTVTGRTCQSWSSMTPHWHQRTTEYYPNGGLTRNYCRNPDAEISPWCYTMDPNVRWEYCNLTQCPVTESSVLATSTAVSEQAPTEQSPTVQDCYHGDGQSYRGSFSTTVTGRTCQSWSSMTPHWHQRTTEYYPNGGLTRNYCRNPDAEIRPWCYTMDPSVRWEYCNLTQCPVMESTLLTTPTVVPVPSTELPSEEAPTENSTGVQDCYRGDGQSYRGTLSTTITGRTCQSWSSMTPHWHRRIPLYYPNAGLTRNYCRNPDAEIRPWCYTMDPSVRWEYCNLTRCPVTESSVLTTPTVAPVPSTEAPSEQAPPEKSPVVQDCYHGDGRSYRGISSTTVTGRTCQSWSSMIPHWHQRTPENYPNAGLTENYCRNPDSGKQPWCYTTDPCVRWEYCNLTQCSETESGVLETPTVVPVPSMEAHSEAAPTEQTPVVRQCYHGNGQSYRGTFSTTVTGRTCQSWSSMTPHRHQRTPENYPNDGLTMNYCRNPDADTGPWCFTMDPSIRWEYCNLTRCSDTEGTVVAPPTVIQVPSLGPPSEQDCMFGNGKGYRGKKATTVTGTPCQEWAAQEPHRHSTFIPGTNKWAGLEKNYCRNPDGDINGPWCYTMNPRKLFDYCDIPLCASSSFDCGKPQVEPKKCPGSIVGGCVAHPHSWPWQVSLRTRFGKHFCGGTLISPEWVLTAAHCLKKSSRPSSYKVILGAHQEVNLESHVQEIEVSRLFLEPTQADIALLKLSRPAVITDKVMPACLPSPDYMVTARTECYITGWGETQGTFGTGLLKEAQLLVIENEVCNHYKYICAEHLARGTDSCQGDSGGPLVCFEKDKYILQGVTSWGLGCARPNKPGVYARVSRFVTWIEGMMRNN

- pIC50 [1]: 9.11
SMILES: O=C(O)[C@@H](Cc1cccc(CNCCN(Cc2cccc(C[C@H](C(=O)O)[C@H]3CCNC3)c2)Cc2cccc(C[C@H](C(=O)O)[C@H]3CCNC3)c2)c1)[C@H]1CCNC1 [Compound 5, (2S)-3-(3-{[({3-[(2S)-2-Carboxy-2-[(3R)-pyrrolidin-3-yl]ethyl]phenyl}methyl)({2-[({3-[(2S)-2-carboxy-2-[(3R)-pyrrolidin-3-yl]ethyl]phenyl}methyl)amino]ethyl})amino]methyl}phenyl)-2-[(3R)-pyrrolidin-3-yl]propanoic acid]

- oral absorption compared with reference 1 ([3]; conclusion in words): better
- pIC50 [1]: 9.39
- AUC ([4]; 15 mg/kg): 33.1 µg·h/mL
- half-life ([4]; 15 mg/kg): 16.6 h
- Cmax ([4]; 15 mg/kg): 2.37 µg/mL
- Unit-dose area under curve AUC/D ([4]; 15 mg/kg): 2200 ng·h/mL per mg/kg
- plasma exposure relative to reference 1 ([4]; compound 6 15 mg/kg vs reference 1 50 mg/kg): ~5 times
- oral absorption compared with reference 1 ([4]; conclusion in words): better
SMILES: O=C(O)[C@@H](Cc1cccc(CN(CCOc2cccc(C[C@H](C(=O)O)[C@H]3CCNC3)c2)Cc2cccc(C[C@H](C(=O)O)[C@H]3CCNC3)c2)c1)[C@H]1CCNC1 [Compound 6, (2S)-3-(3-{[(2-{3-[(2S)-2-Carboxy-2-[(3R)-pyrrolidin-3-yl]ethyl]phenoxy}ethyl)({3-[(2S)-2-carboxy-2-[(3R)-pyrrolidin-3-yl]ethyl]phenyl}methyl)amino]methyl}phenyl)-2-[(3R)-pyrrolidin-3-yl]propanoic acid tetrahydrochloride]
- body weight trend of the mice [2]: remained unchanged or even increased
- Mouse body weight, Day 0 [2]: 25.83 g
- Mouse body weight, Day 3 [2]: 26.93 g
- Mouse body weight, Day 5 [2]: 26.70 g
- Mouse body weight, Day 7 [2]: 26.67 g

- pIC50 [1]: 9.12
SMILES: O=C(O)[C@@H](Cc1cccc(CN(CCNc2cccc(C[C@H](C(=O)O)[C@H]3CCNC3)c2)Cc2cccc(C[C@H](C(=O)O)[C@H]3CCNC3)c2)c1)[C@H]1CCNC1 [Compound 7, (2S)-3-[3-({[2-({3-[(2S)-2-Carboxy-2-[(3R)-pyrrolidin-3-yl]ethyl]phenyl}amino)ethyl]({3-[(2S)-2-carboxy-2-[(3R)-pyrrolidin-3-yl]ethyl]phenyl}methyl)amino}methyl)phenyl]-2-[(3R)-pyrrolidin-3-yl]propanoic acid pentahydrochloride]

- AUC ([3]; male, beagle, dog, plasma, po, read-out: Area under curve AUC): 22.9 µg·h/mL
- half-life ([3]; male, beagle, dog, plasma, po, read-out: Half-life T1/2 (converted)): 20.7 h
- Cmax ([3]; male, beagle, dog, plasma, po, read-out: Maximum plasma concentration Cmax): 1.63 µg/mL
- AUC ([4]; 50 mg/kg): 22.2 µg·h/mL
- half-life ([4]; 50 mg/kg): 17.7 h
- Cmax ([4]; 50 mg/kg): 2.19 µg/mL
- Unit-dose area under curve AUC/D ([4]; 50 mg/kg): 443 ng·h/mL per mg/kg
SMILES: O=C(O)[C@@H](Cc1cccc(CN(Cc2cccc(C[C@H](C(=O)O)[C@H]3CCNC3)c2)Cc2cccc(C[C@H](C(=O)O)[C@H]3CCNC3)c2)c1)[C@H]1CCNC1 [Reference 1, reference compound]
- body weight trend of the mice [2]: significant downward trend
- Mouse body weight, Day 0 [2]: 25.87 g
- Mouse body weight, Day 3 [2]: 25.70 g
- Mouse body weight, Day 5 [2]: 25.10 g
- Mouse body weight, Day 7 [2]: 24.53 g

Continued, compound first:

SMILES: O=C(O)[C@@H](Cc1cc(F)cc(CN(Cc2cc(F)cc(C[C@H](C(=O)O)[C@H]3CCNC3)c2)Cc2cc(F)cc(C[C@H](C(=O)O)[C@H]3CCNC3)c2)c1)[C@H]1CCNC1 [Compound 1, (2S)-3-(3-{[Bis({3-[(2S)-2-carboxy-2-[(3R)-pyrrolidin-3-yl]ethyl]-5-fluorophenyl}methyl)amino]methyl}-5-fluorophenyl)-2-[(3R)-pyrrolidin-3-yl]propanoic acid]
- pIC50 [1]: 9.12

SMILES: O=C(O)[C@@H](Cc1cccc(CN(Cc2cccc(C[C@H](C(=O)O)C3CCNCC3)c2)Cc2cccc(C[C@H](C(=O)O)C3CCNCC3)c2)c1)C1CCNCC1 [Compound 2, (2S)-3-(3-{[Bis({3-[(2S)-2-carboxy-2-(piperidin-4-yl)ethyl]phenyl}methyl)amino]methyl}phenyl)-2-(piperidin-4-yl)propanoic acid]
- pIC50 [1]: 8.77

SMILES: O=C(O)C(F)(Cc1cccc(CN(Cc2cccc(CC(F)(C(=O)O)[C@H]3CCNC3)c2)Cc2cccc(CC(F)(C(=O)O)[C@H]3CCNC3)c2)c1)[C@H]1CCNC1 (stereo partly drawn) [Compound 3, 3-[3-({Bis[(3-{2-carboxy-2-fluoro-2-[(3S)-pyrrolidin-3-yl]ethyl}phenyl)methyl]amino}methyl)phenyl]-2-fluoro-2-[(3S)-pyrrolidin-3-yl]propanoic acid]
- pIC50 [1]: 8.85

SMILES: O=C(O)[C@@H](Cc1cccc(CN(CCN(Cc2cccc(C[C@H](C(=O)O)[C@H]3CCNC3)c2)Cc2cccc(C[C@H](C(=O)O)[C@H]3CCNC3)c2)Cc2cccc(C[C@H](C(=O)O)[C@H]3CCNC3)c2)c1)[C@H]1CCNC1 [Compound 4, (2S)-3-{3-[({2-[Bis({3-[(2S)-2-carboxy-2-[(3R)-pyrrolidin-3-yl]ethyl]phenyl}methyl)amino]ethyl}({3-[(2S)-2-carboxy-2-[(3R)-pyrrolidin-3-yl]ethyl]phenyl}methyl)amino)methyl]phenyl}-2-[(3R)-pyrrolidin-3-yl]propanoic acid]
- pIC50 [1]: 9.07
